Entries after “also recorded” stand apart in the source; their conditions may differ. Read-outs that look alike come from different tables or passages of the source. Marks after values point to notes of the source that are not given here.
Key:
[1] = Fenthion, fenoxon and fenthion sulfoxide metabolism in gill microsomes; conditions: gills, substrate 100 μM, bdl: <0.3
[2] = Fenthion, fenoxon and fenthion sulfoxide metabolism in liver microsomes; conditions: for S-fenoxon sulfoxide formation / R-fenoxon sulfoxide formation: liver, substrate 100 μM; for Vmax, Fenoxon formation / Vmax, MMTP (NADPH-dependent) formation / Vmax, MMTP (NADPH-independent) formation / Vmax, R-fenthion sulfoxide formation / Vmax, S-fenthion sulfoxide formation / Vmax, R-fenoxon sulfoxide formation / Vmax, S-fenoxon sulfoxide formation: liver microsomes incubated with fenthion
[3] = olfactory tissues
[4] = tested on: AChE; conditions: read-out: IC50 (AChE inhibition); ref Gadepalli et al., 2007; cited from earlier work
[5] = tested on: FMO3; conditions: ref Furnes and Schlenk, 2003, 2004; cited from earlier work
[6] = Cleavage in cytosolic incubations; conditions: data not shown
[7] = biological target: T1, recombinant human FMO1 (Homo sapiens, UniProt Q01740); experiment: Biotransformation by recombinant human FMO1; conditions: fenthion sulfoxide as substrate
T1 sequence (Q01740 1-532): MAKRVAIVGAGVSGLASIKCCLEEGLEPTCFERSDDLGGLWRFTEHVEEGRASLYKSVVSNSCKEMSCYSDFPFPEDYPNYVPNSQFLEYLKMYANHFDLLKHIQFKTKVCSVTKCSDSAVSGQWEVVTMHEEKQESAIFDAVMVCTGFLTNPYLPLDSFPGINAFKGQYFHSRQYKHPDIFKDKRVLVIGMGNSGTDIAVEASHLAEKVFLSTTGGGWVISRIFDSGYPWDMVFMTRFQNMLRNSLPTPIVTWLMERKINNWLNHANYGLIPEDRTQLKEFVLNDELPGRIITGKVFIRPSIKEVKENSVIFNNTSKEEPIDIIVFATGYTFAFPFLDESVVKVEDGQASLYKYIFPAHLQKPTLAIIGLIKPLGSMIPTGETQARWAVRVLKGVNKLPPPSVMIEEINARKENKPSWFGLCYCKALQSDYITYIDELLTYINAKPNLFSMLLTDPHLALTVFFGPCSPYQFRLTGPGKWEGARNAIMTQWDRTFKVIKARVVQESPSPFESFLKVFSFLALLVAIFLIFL

[8] = TEPP inhibition of MMTP formation from fenthion, liver microsomes; type: biochemical, rainbow trout (Oncorhynchus mykiss); conditions: freshwater-acclimated
[9] = TEPP inhibition of MMTP formation from fenthion, gill microsomes; type: biochemical, rainbow trout (Oncorhynchus mykiss); conditions: Gills, freshwater-acclimated
[10] = TEPP inhibition of MMTP formation from fenthion, olfactory tissue microsomes; type: biochemical, rainbow trout (Oncorhynchus mykiss); conditions: freshwater-acclimated
[11] = tested on: testosterone hydroxylase (CYP3A27-related); experiment: [14C]Testosterone hydroxylase activity in liver microsomes; conditions: Ketoconazole 500 μM; below detection; data not shown
[12] = CYP; conditions: for reduction of fenoxon formation: liver microsomes, ketoconazole 500 μM; for Fenoxon formation from fenthion / MMTP (NADPH-dependent) formation from fenthion / MMTP (NADPH-independent) formation from fenthion / R-Fenthion sulfoxide formation from fenthion / S-Fenthion sulfoxide formation from fenthion: liver, NADPH+ ketoconazole (500 μM)+ fenthion
[13] = Table 1, freshwater-acclimated, bdl: <0.3
[14] = Table 1, freshwater-acclimated, substrate 100 μM, bdl: <0.3

## COP(=S)(OC)Oc1ccc([S+](C)[O-])c(C)c1 (centres unmarked) [S-fenthion sulfoxide]
[1]; Table 1, freshwater-acclimated
  S-fenoxon sulfoxide formation: 2.3±0.2 pmol/min/mg protein
[1]; Table 4, Freshwater
  S-fenoxon sulfoxide formation: 2.1±0.1 pmol/min/mg protein
[2]; [13]
  S-fenoxon sulfoxide formation: 6.1±0.2 pmol/min/mg protein
[2]; Table 3, Freshwater, bdl: <0.3
  S-fenoxon sulfoxide formation: 6.1±0.2 pmol/min/mg protein
[2]; Table 3, Hypersaline
  S-fenoxon sulfoxide formation: 12.2±3.2 pmol/min/mg protein
[3]; [14]
  S-fenoxon sulfoxide formation: bdl

## COP(=S)(OC)Oc1ccc([S@@+](C)[O-])c(C)c1 [R-fenthion sulfoxide]
[4]
  IC50: > 1000 µM
[1]; Table 1, freshwater-acclimated
  R-fenoxon sulfoxide formation: 2.9±0.1 pmol/min/mg protein
[1]; Table 4, Freshwater
  R-fenoxon sulfoxide formation: 2.9±0.1 pmol/min/mg protein
[2]; [13]
  R-fenoxon sulfoxide formation: 5.2±1.1 pmol/min/mg protein
[2]; Table 3, Freshwater, bdl: <0.3
  R-fenoxon sulfoxide formation: 5.2±1.1 pmol/min/mg protein
[2]; Table 3, Hypersaline
  R-fenoxon sulfoxide formation: 9.2±0.3 pmol/min/mg protein
[3]; [14]
  R-fenoxon sulfoxide formation: bdl

## COP(=S)(OC)Oc1ccc(SC)c(C)c1 [Fenthion, O,O-dimethyl-O-(4-methylmlercapto)-3-methylphenylthio-phosphate]
[5]
  S-sulfoxide excess formed: 75%
[6]
  NADPH-independent or dependent cleavage: not observed
[1]; Table 1, freshwater-acclimated
  R-fenoxon sulfoxide formation: bdl
  S-fenoxon sulfoxide formation: bdl
[1]; Table 4, Freshwater
  R-fenoxon sulfoxide formation: bdl
  S-fenoxon sulfoxide formation: bdl
[1]; Table 4, Hypersaline
  R-fenoxon sulfoxide formation: bdl
  S-fenoxon sulfoxide formation: bdl
[2]; Freshwater
  Vmax, Fenoxon formation: 82.8±4.6 pmol/min/mg protein
  Vmax, MMTP (NADPH-dependent) formation: 199.2±24.4 pmol/min/mg protein
  Vmax, MMTP (NADPH-independent) formation: 53.7±4.8 pmol/min/mg protein
  Vmax, R-fenthion sulfoxide formation: 78.6±5.2 pmol/min/mg protein
  Vmax, S-fenthion sulfoxide formation: 173.4±9.6 pmol/min/mg protein
[2]; Freshwater, bdl: <0.3
  Vmax, R-fenoxon sulfoxide formation: bdl
  Vmax, S-fenoxon sulfoxide formation: bdl
[2]; Hypersaline
  Vmax, Fenoxon formation: 130.0±6.1 pmol/min/mg protein
  Vmax, MMTP (NADPH-dependent) formation: 35.1±1.9 pmol/min/mg protein
  Vmax, MMTP (NADPH-independent) formation: 59.8±10.5 pmol/min/mg protein
  Vmax, R-fenoxon sulfoxide formation: 7.7±0.6 pmol/min/mg protein
  Vmax, R-fenthion sulfoxide formation: 201.1±11.9 pmol/min/mg protein
  Vmax, S-fenoxon sulfoxide formation: 18.4±1.1 pmol/min/mg protein
  Vmax, S-fenthion sulfoxide formation: 355.7±9.4 pmol/min/mg protein
[2]; [13]
  R-fenoxon sulfoxide formation: bdl
  S-fenoxon sulfoxide formation: bdl
[2]; Table 3, Freshwater, bdl: <0.3
  R-fenoxon sulfoxide formation: bdl
  S-fenoxon sulfoxide formation: bdl
[2]; liver microsomes, HA fish
  efficiency of R-sulfoxide formation relative to fenoxon: 2 fold
  efficiency of S-sulfoxide formation relative to R-sulfoxide: approximately 3 fold
[3]; [14]
  Fenoxon formation: bdl
  R-fenoxon sulfoxide formation: bdl
  R-fenthion sulfoxide formation: bdl
  S-fenoxon sulfoxide formation: bdl
  S-fenthion sulfoxide formation: bdl
[3]; HA fish, data not shown
  sulfoxidation: not detected

## COP(=S)(OC)Oc1ccc([S+](C)[O-])c(C)c1 (centres unmarked) [fenthion sulfoxide]
[7]
  Fenoxon sulfoxides production: not produced

## CCOP(=O)(OCC)OP(=O)(OCC)OCC [TEPP, tetraethylpyrophosphate]
[8]; 100 μM TEPP
  MMTP Formation from fenthion, NADPH-dependent: 138.4±10.3^a pmol/min/mg protein
[8]; 500 μM TEPP
  MMTP Formation from fenthion, NADPH-dependent: 65.4±11.1^b pmol/min/mg protein
[8]; 500 μM TEPP, bdl: <0.3
  MMTP Formation from fenthion, NADPH-independent: bdl^b
[8]; 1000 μM TEPP, bdl: <0.3
  MMTP Formation from fenthion, NADPH-dependent: below detection; also recorded: bdl^c
  MMTP Formation from fenthion, NADPH-independent: bdl^b
[9]; 100 μM TEPP
  MMTP Formation from fenthion, NADPH-dependent: 105.3±8.9^a pmol/min/mg protein
[9]; 500 μM TEPP
  MMTP Formation from fenthion, NADPH-dependent: 74.3±10.1^b pmol/min/mg protein
[9]; 500 μM TEPP, bdl: <0.3
  MMTP Formation from fenthion, NADPH-independent: bdl^b
[9]; 1000 μM TEPP, bdl: <0.3
  MMTP Formation from fenthion, NADPH-dependent: below detection; also recorded: bdl^c
  MMTP Formation from fenthion, NADPH-independent: bdl^b
[10]; 100 μM TEPP
  MMTP Formation from fenthion, NADPH-dependent: 254.3±18.1^a pmol/min/mg protein
[10]; 500 μM TEPP
  MMTP Formation from fenthion, NADPH-dependent: 100.2±13.3^b pmol/min/mg protein
[10]; 500 μM TEPP, bdl: <0.3
  MMTP Formation from fenthion, NADPH-independent: bdl^b
[10]; 1000 μM TEPP, bdl: <0.3
  MMTP Formation from fenthion, NADPH-dependent: below detection; also recorded: bdl^c
  MMTP Formation from fenthion, NADPH-independent: bdl^b

## CC(=O)N1CCN(c2ccc(OCC3COC(Cn4ccnc4)(c4ccc(Cl)cc4Cl)O3)cc2)CC1 (centres unmarked) [ketoconazole]
[11]
  testosterone hydroxylase activity with inhibitor: < 0.2 pmol/min/mg protein
[12]; liver microsomes from HA fish, co-incubation
  fenoxon sulfoxide formation with inhibitor: below detection
[12]; FA fish
  reduction of fenoxon formation: 67%
[12]; HA fish
  reduction of fenoxon formation: 60%
[12]; Freshwater
  Fenoxon formation from fenthion: 6.9±1.3 pmol/min/mg protein
  MMTP (NADPH-dependent) formation from fenthion: 121.2±15.3 pmol/min/mg protein
  MMTP (NADPH-independent) formation from fenthion: 5.3±2.1 pmol/min/mg protein
  R-Fenthion sulfoxide formation from fenthion: 16.7±1.7 pmol/min/mg protein
  S-Fenthion sulfoxide formation from fenthion: 33.7±2.7 pmol/min/mg protein
[12]; Hypersaline
  Fenoxon formation from fenthion: 16.8±2.4 pmol/min/mg protein
  MMTP (NADPH-dependent) formation from fenthion: 13.2±4.5 pmol/min/mg protein
  MMTP (NADPH-independent) formation from fenthion: 4.5±1.1 pmol/min/mg protein
  R-Fenthion sulfoxide formation from fenthion: 83.4±8.4 pmol/min/mg protein
  S-Fenthion sulfoxide formation from fenthion: 168.4±13.2 pmol/min/mg protein

From publication PMC2858921 (Toxicology and applied pharmacology, 2008)
